{"source": "patent US20180140578A1", "about": "“METHODS AND COMPOSITIONS FOR THE DIAGNOSIS AND SELECTIVE TREATMENT OF CANCER” (Board of Regents of the University of Texas System, priority 2016, published 2018)", "test_system": "DCAF15-3xFLAG and mutant RBM39Δ150 (M265L, E271Q, P272S)", "assay": "RBM39Δ150 pulldown assay, mutant RBM39", "assay_type": "binding, human", "details": "at concentrations as high as 10 μM", "description": "RBM39 lacking the first 150 amino acids after the start codon (RBM39Δ150) was cloned into the pFastBac1 (Life Technologies) vector. Site-directed Mutagenesis of RBM39 was performed using Q5 site-directed mutagenesis kit (NEB). DCAF15-GST (C-terminal GST tag) and DDB1 were also cloned into pFastBac1. The production of baculovirus was carried out following vendor's instructions. Protein was expressed in SF9 cells by infection with each protein specific baculovirus, and cells were harvested 48 hr later and frozen in liquid nitrogen. For purification of RBM39Δ150, frozen cells were pulverized by cryomill and resuspended in lysis buffer (40 mM Tris, pH 7.5, 225 mM NaCl, 1× […] Protease inhibitor). The lysate was passed through a 22 gauge needle 2 times followed by ultracentrifugation at 25000 rpm for 30 min. Clarified lysate was incubated with Ni-NTA agarose (Qiagen) for 30 min with rotation at 4° C. Resin and bound protein were washed with wash buffer 1 (40 mM Tris, pH 7.5, 225 mM NaCl) followed by wash buffer 2 (40 mM Tris, pH 7.5, 20 mM imidazole, 225 mM NaCl). Proteins were eluted with elution buffer (40 mM Tris, pH 7.5, 300 mM imidazole, 225 mM NaCl) and concentrated to 0.5 ml. Concentrated proteins were then fractionated on Superdex 200 Increase 10/300 GL (GE Healthcare). […]"}
{"smiles": "NS(=O)(=O)c1ccc(S(=O)(=O)Nc2cccc3c(Cl)c[nH]c23)cc1", "note": "[Indisulam, indisulam]", "values": [{"measurement": "recruitment of M265L or E271Q variants of RBM39Δ150 to DCAF15", "result": "failed to recruit"}]}
